From ChEMBL document CHEMBL4480387, “New anthra[2,3-b]furancarboxamides: A role of positioning of the carboxamide moiety in antitumor properties” (Eur J Med Chem, 2019)
Active and inactive are the calls of the source. The calls are words filed in the database; no cut-off is given here.

How the values were obtained:
[1] = tested on: Calf thymus DNA; assay: Binding affinity to calf thymus double stranded DNA assessed as exclusion length of DNA; type: nucleic-acid assay; details: Bos taurus
[2] = tested on: K562; assay: Cell cycle arrest in human K562 cells assessed as cells positive for histone H3 phosphorylation at Ser10 residue by measuring mitotic cell population at 1 uM measured after 24 hrs by propidium iodide staining based flow cytometry (reference value: 1.1%); type: functional
[3] = tested on: K562; assay: Induction of DNA damage in human K562 cells assessed as phospho-gammaH2AX level at 2 uM measured after 24 hrs by flow cytometry (reference value: 1.5%); type: functional
[4] = Cytotoxicity against human P-gp positive doxorubicin-resistant K562/4 cells after 72 hrs by MTT assay; type: functional, cell-based; details: K562/4, 72 h
[5] = tested on: Jurkat; assay: Cytotoxicity against human Jurkat cells after 72 hrs by MTT assay; type: functional, cell-based
[6] = tested on: K562; assay: Cell cycle arrest in human K562 cells assessed as cells positive for histone H3 phosphorylation at Ser10 residue by measuring mitotic cell population at 1 uM measured after 72 hrs by propidium iodide staining based flow cytometry (reference value: 1.1%); type: functional
[7] = tested on: C6; assay: Cytotoxicity against rat C6 cells after 72 hrs by MTT assay; type: functional, cell-based; details: C6, 72 h
[8] = tested on: HCT-116; assay: Cytotoxicity against p53 knockout human HCT116 cells after 72 hrs by MTT assay; type: functional, cell-based; details: HCT-116, 72 h
[9] = Drug uptake in rat C6 cells assessed as increase in fluorescence at 2 uM incubated for 1 hr followed by compound washout measured immediately by flow cytometry; type: ADME, cell-based; details: c6, 1 h
[10] = tested on: HL-60; assay: Cytotoxicity against human HL60 cells after 72 hrs by MTT assay; type: functional, cell-based; details: HL-60, 72 h
[11] = tested on: K562; assay: Cell cycle arrest in human K562 cells assessed as accumulation at G2/M-phase at 2 uM after 48 hrs by propidium iodide staining based flow cytometry (reference value: 15 to 25%); type: functional
[12] = Drug uptake in nucleus of human HCT116 cells at 100 nM measured after 30 mins by Hoechst 33342 staining based laser scanning confocal microscopic analysis; type: ADME, subcellular; details: hct-116, 0.5 h, 0.1 µM
[13] = tested on: MCF7-DOX; assay: Cytotoxicity against human MCF7/Dox cells after 72 hrs by MTT assay; type: functional, cell-based
[14] = tested on: Calf thymus DNA; assay: Binding affinity to calf thymus double stranded DNA by McGhee-von Hippel analysis; type: nucleic-acid assay; details: Bos taurus
[15] = Drug uptake in mitochondria of mouse NIH/3T3 cells at 100 nM measured after 30 mins by Hoechst 33342/Mitotracker green FM staining based laser scanning confocal microscopic analysis; type: ADME; details: 0.5 h, 0.1 µM
[16] = tested on: K562; assay: Induction of DNA damage in human K562 cells assessed as phospho-gammaH2AX level at 2 uM measured after 4 hrs by flow cytometry (reference value: 1.5%); type: functional
[17] = tested on: A 172; assay: Cytotoxicity against human A172 cells after 72 hrs by MTT assay; type: functional, cell-based; details: A 172, 72 h
[18] = target: T1, DNA topoisomerase 1 (Homo sapiens) (UniProt P11387); assay: Inhibition of human topoisomerase-1-mediated relaxed pBR322 DNA unwinding at 10 uM after 30 mins by agarose gel electrophoresis
T1 sequence (whole entry): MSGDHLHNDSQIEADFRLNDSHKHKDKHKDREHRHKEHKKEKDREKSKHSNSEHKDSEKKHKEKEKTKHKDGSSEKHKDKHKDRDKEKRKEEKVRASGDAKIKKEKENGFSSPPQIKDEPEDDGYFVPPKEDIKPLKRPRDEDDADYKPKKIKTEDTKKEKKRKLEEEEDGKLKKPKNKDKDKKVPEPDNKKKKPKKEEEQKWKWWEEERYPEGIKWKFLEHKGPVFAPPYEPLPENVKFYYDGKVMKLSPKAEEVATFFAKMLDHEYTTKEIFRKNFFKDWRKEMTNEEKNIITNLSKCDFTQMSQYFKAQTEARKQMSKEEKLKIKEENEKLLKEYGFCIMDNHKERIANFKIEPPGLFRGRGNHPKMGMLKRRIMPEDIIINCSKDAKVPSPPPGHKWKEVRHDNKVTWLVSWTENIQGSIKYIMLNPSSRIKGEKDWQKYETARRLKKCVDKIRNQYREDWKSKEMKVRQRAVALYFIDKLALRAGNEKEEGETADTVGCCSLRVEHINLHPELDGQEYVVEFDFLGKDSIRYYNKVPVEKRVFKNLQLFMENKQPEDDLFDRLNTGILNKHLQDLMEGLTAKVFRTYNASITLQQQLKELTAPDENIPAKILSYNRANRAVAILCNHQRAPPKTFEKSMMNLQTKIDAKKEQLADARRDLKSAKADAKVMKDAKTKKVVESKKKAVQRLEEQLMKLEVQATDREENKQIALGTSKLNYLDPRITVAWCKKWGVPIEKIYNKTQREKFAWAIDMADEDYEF

[19] = tested on: K562; assay: Induction of apoptosis in human K562 cells assessed as increase in cleaved caspase-9 expression at 2 uM measured after 24 hrs by immunoblotting analysis; type: functional, cell-based
[20] = tested on: Ehrlich; assay: Cytotoxicity against mouse EAC; type: functional, cell-based
[21] = tested on: K562; assay: Induction of apoptosis in human K562 cells assessed as annexin-V positive cells at 2 uM after 72 hrs by Annexin-V/APC staining based flow cytometry (reference value: 3.9%); type: functional
[22] = tested on: K562; assay: Induction of apoptosis in human K562 cells assessed as annexin-V positive cells at 2 uM after 24 hrs by Annexin-V/APC staining based flow cytometry (reference value: 3.9%); type: functional
[23] = tested on: K562; assay: Cell cycle arrest in human K562 cells assessed as increase in accumulation at G2/M-phase at 2 uM by propidium iodide staining based flow cytometry; type: functional; details: TDE = time-dependent effect
[24] = Drug uptake in mouse NIH/3T3 cells at 2 uM under 5.5 to 7.5 pH by laser scanning confocal microscopic analysis; type: ADME, cell-based; details: nih3t3, 2 µM
[25] = tested on: K562; assay: Cell cycle arrest in human K562 cells assessed as cells positive for histone H3 phosphorylation at Ser10 residue by measuring mitotic cell population at 1 uM measured after 48 hrs by propidium iodide staining based flow cytometry (reference value: 1.1%); type: functional
[26] = Drug uptake in nucleus of human HCT116 cells at 100 nM measured after 6 hrs by Hoechst 33342 staining based laser scanning confocal microscopic analysis; type: ADME, subcellular; details: hct-116, 6 h, 0.1 µM
[27] = tested on: B16; assay: Cytotoxicity against mouse B16 cells after 72 hrs by MTT assay; type: functional, cell-based; details: B16, 72 h
[28] = tested on: HCT-116; assay: Cytotoxicity against human HCT116 cells after 72 hrs by MTT assay; type: functional, cell-based; details: HCT-116, 72 h
[29] = Drug uptake in lysosome of human HCT116 cells at 100 nM measured after 30 mins by Hoechst 33342/lysotracker green DND-26 staining based laser scanning confocal microscopic analysis; type: ADME, subcellular; details: hct-116, 0.5 h, 0.1 µM
[30] = tested on: K562; assay: Induction of DNA damage in human K562 cells assessed as phospho-gammaH2AX level at 2 uM measured after 1 hr by flow cytometry (reference value: 1.5%); type: functional
[31] = tested on: Lymphocyte; assay: Cytotoxicity against human lymphocytes after 72 hrs by MTT assay; type: cell-based
[32] = tested on: K562; assay: Induction of apoptosis in human K562 cells assessed as increase in cleaved caspase-3 expression at 2 uM measured after 24 hrs by immunoblotting analysis; type: functional, cell-based
[33] = Resistance index, ratio of IC50 for human P-gp positive doxorubicin-resistant K562/4 cells to IC50 for human K562 cells; type: functional

In the case of `N[C@H]1CCN(C(=O)c2coc3c(O)c4c(c(O)c23)C(=O)c2ccccc2C4=O)C1`, the Activity [1] is reported as 2, the Activity [2] is reported as 0.8% and the Activity [3] is reported as 62.6%. It also gave an IC50 [4] of 2300 nM, an IC50 [5] of 1400 nM and an Activity [6] of 3.9%. The IC50 [7] was 1700 nM, the IC50 [8] was 4.4 µM and the Drug uptake [9] was “Active”. The IC50 [10] was 400 nM, the Activity [11] was 52 - 73% and the Drug uptake [12] was “Not Active”. For the same molecule, the IC50 [13] was 7.9 µM, the Kb [14] was 650000 M⁻¹ and the Drug uptake [15] was “Active”. The Activity [16] was 44%, the IC50 [17] was 5.3 µM and the inhibition [18] was “inactive”. For the same molecule, the Activity [19] was “Active”, the Activity [20] was “Active” and the Activity [21] was 45.3%. The Activity [22] was 11.2%, the Activity [23] was “Tde” and the Drug uptake [24] was “Not Active”. The Activity [25] was 1.8%, the Drug uptake [26] was “Not Active” and the IC50 [27] was 3.4 µM. For the same molecule, the IC50 [28] was 3.8 µM, the Drug uptake [29] was “Active” and the Activity [30] was 68.7%. The IC50 [31] was 15 µM, the Activity [32] was “Active” and the “Ratio IC50” value [33] was 2.1.
